In US6737383B1, “Herbicidal oxadiazolidines” (priority 1999, dated 2004):

Columns and labels:
bedstraw = assay: Test B pre/postemergence bedstraw; format: in vivo, Galium aparine
How it was run: (§1)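 Herbicidal effect was estimated by eye on a ten-point control scale after plants spent twelve to sixteen days in a greenhouse following soil or foliar treatment. Foliar sprays targeted plants at one to four leaves; all doses were formulated in a non-phytotoxic solvent with surfactant.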

blackgrass = assay: Test B pre/postemergence blackgrass; format: in vivo, Alopecurus myosuroides
How it was run: as §1

surinam grass = assay: Test B pre/postemergence surinam grass; format: in vivo, Brachiaria decumbens
How it was run: as §1

cocklebur = assay: Test B pre/postemergence cocklebur; format: in vivo, Xanthium strumarium
How it was run: as §1

corn = assay: Test B pre/postemergence corn; format: in vivo, Zea mays
How it was run: as §1

crabgrass = assay: Test B pre/postemergence crabgrass; format: in vivo, Digitaria sanguinalis
How it was run: as §1

giant foxtail = assay: Test B pre/postemergence giant foxtail; format: in vivo, Setaria faberii
How it was run: as §1

morningglory = assay: Test B pre/postemergence morningglory; format: in vivo, Ipomoea hederacea
How it was run: as §1

pigweed = assay: Test B pre/postemergence pigweed; format: in vivo, Amaranthus retroflexus
How it was run: as §1

rape = assay: Test B pre/postemergence rape; format: in vivo, Brassica napus
How it was run: as §1

soybean = assay: Test B pre/postemergence soybean; format: in vivo, Glycine max
How it was run: as §1

sugar beet = assay: Test B pre/postemergence sugar beet; format: in vivo, Beta vulgaris
How it was run: as §1

velvetleaf = assay: Test B pre/postemergence velvetleaf; format: in vivo, Abutilon theophrasti
How it was run: as §1

wheat = assay: Test B pre/postemergence wheat; format: in vivo, Triticum aestivum
How it was run: as §1

wild oat = assay: Test B pre/postemergence wild oat; format: in vivo, Avena fatua
How it was run: as §1

purple nutsedge = assay: Test B pre/postemergence purple nutsedge; format: in vivo, Cyperus rotundus
How it was run: as §1

rice = assay: Test B flood test rice; format: in vivo, Oryza sativa
How it was run: (§2)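 Flood test on plants grown to the 2-leaf stage; treated plants kept in greenhouse twelve to sixteen days, then visually rated against controls on a 0 (no effect) to 10 (complete control) scale.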

smallflower flatsedge = assay: Test B flood test smallflower flatsedge; format: in vivo, Cyperus difformis
How it was run: as §2

duck salad = assay: Test B flood test duck salad; format: in vivo, Heteranthera limosa
How it was run: as §2

bamyardgrass = assay: Test B flood test barnyardgrass; format: in vivo, Echinochloa crus-galli
How it was run: as §2

[1] = Postemergence, Rate 62 g/ha, scale 0 to 10, 0 is no effect, 10 is complete control
[2] = Preemergence, Rate 62 g/ha, scale 0 to 10 (0 no effect, 10 complete control)
[3] = Preemergence, Rate 125 g/ha, scale of 0 to 10 where 0 is no effect and 10 is complete control
[4] = Preemergence, Rate 500 g/ha, scale of 0 to 10 where 0 is no effect and 10 is complete control
[5] = Postemergence, Rate 125 g/ha, scale of 0 to 10 where 0 is no effect and 10 is complete control
[6] = Postemergence, Rate 250 g/ha, scale of 0 to 10, 0 is no effect, 10 is complete control
[7] = Postemergence, Rate 500 g/ha, scale of 0 to 10 where 0 is no effect and 10 is complete control
[8] = Rate 62 g/ha, flood test species, Pre-emergence, visual evaluation after twelve to sixteen days
[9] = Rate 125 g/ha, under heading Pre-emergence, flood test species, visual evaluation after twelve to sixteen days
[10] = Rate 250 g/ha, Pre-emergence (flood test species), scale 0 to 10, 0 is no effect, 10 is complete control
[11] = Rate 500 g/ha, Pre-emergence section of Table B, 0 to 10 scale (0 no effect, 10 complete control)

C=C(Cn1c(=O)on(C(=O)N(c2ccccc2)C(C)C)c1=O)c1cccc(Cl)n1 [Compound 605]
Plant response rating, Bedstraw (bedstraw; [1]): 0 | Bedstraw plant response rating (bedstraw; [2]): 0 | Bedstraw plant response rating (bedstraw; [3]): 0 | Bedstraw plant response rating (0 to 10 scale) (bedstraw; Preemergence, Rate 250 g/ha): 0 | Bedstraw plant response rating (bedstraw; [4]): 0 | Plant response rating, Blackgrass (blackgrass; [1]): 0 | Plant response rating, Blackgrass (blackgrass; [5]): 0 | Blackgrass plant response rating (blackgrass; [6]): 0 | Plant response rating, Blackgrass (blackgrass; [7]): 0 | Blackgrass plant response rating (blackgrass; [2]): 0 | Blackgrass plant response rating (blackgrass; [3]): 0 | Blackgrass plant response rating (0 to 10 scale) (blackgrass; Preemergence, Rate 250 g/ha): 0 | Blackgrass plant response rating (blackgrass; [4]): 0 | Plant response rating, B. signalgrass (surinam grass; [1]): 0 | Plant response rating, B. signalgrass (surinam grass; [5]): 0 | B. signalgrass plant response rating (surinam grass; [6]): 0 | Plant response rating, B. signalgrass (surinam grass; [7]): 0 | B. signalgrass plant response rating (surinam grass; [2]): 0 | B. signalgrass plant response rating (surinam grass; [3]): 0 | B. signalgrass plant response rating (0 to 10 scale, 0 is no effect, 10 is complete control) (surinam grass; Preemergence, Rate 250 g/ha): 0 | B. signalgrass plant response rating (surinam grass; [4]): 0 | Plant response rating, Cocklebur (cocklebur; [1]): 0 | Plant response rating, Cocklebur (cocklebur; [5]): 0 | Cocklebur plant response rating (cocklebur; [6]): 0 | Plant response rating, Cocklebur (cocklebur; [7]): 0 | Cocklebur plant response rating (cocklebur; [2]): 0 | Cocklebur plant response rating (cocklebur; [3]): 0 | Cocklebur plant response rating (0 to 10 scale) (cocklebur; Preemergence, Rate 250 g/ha): 0 | Plant response rating, Cocklebur (cocklebur; [4]): 0 | Plant response rating, Corn (corn; [1]): 0 | Plant response rating, Corn (corn; [5]): 0 | Corn plant response rating (corn; [6]): 0 | Plant response rating, Corn (corn; [7]): 0 | Corn plant response rating (corn; [2]): 0 | Corn plant response rating (corn; [3]): 0 | Corn plant response rating (0 to 10 scale) (corn; Preemergence, Rate 250 g/ha): 0 | Plant response rating, Corn (corn; [4]): 0 | Plant response rating, Crabgrass (crabgrass; [1]): 0 | Plant response rating, Crabgrass (crabgrass; [5]): 0 | Crabgrass plant response rating (crabgrass; [6]): 1 | Plant response rating, Crabgrass (crabgrass; [7]): 3 | Crabgrass plant response rating (crabgrass; [2]): 0 | Crabgrass plant response rating (crabgrass; [3]): 3 | Plant response rating, Crabgrass (crabgrass; [4]): 10 | Plant response rating, Giant foxtail (giant foxtail; [1]): 0 | Plant response rating, Giant foxtail (giant foxtail; [5]): 0 | Giant foxtail plant response rating (giant foxtail; [6]): 0 | Plant response rating, Giant foxtail (giant foxtail; [7]): 2 | Giant foxtail plant response rating (giant foxtail; [2]): 2 | Giant foxtail plant response rating (giant foxtail; [3]): 10 | Plant response rating, Giant foxtail (giant foxtail; [4]): 10 | Plant response rating, Morningglory (morningglory; [5]): 6 | Morningglory plant response rating (morningglory; [6]): 9 | Plant response rating, Morningglory (morningglory; [7]): 10 | Morningglory plant response rating (morningglory; [2]): 0 | Morningglory plant response rating (morningglory; [3]): 0 | Plant response rating, Redroot pigweed (pigweed; [1]): 0 | Plant response rating, Redroot pigweed (pigweed; [5]): 0 | Redroot pigweed plant response rating (pigweed; [6]): 0 | Plant response rating, Redroot pigweed (pigweed; [7]): 0 | Redroot pigweed plant response rating (pigweed; [2]): 0 | Redroot pigweed plant response rating (pigweed; [3]): 0 | Plant response rating, Redroot pigweed (pigweed; [4]): 0 | Plant response rating, Rape (rape; [1]): 0 | Plant response rating, Rape (rape; [5]): 0 | Rape plant response rating (rape; [6]): 0 | Plant response rating, Rape (rape; [7]): 0 | Rape plant response rating (rape; [2]): 0 | Rape plant response rating (rape; [3]): 0 | Plant response rating, Rape (rape; [4]): 0 | Plant response rating, Soybean (soybean; [1]): 2 | Plant response rating, Soybean (soybean; [5]): 2 | Soybean plant response rating (soybean; [6]): 3 | Plant response rating, Soybean (soybean; [7]): 5 | Soybean plant response rating (soybean; [2]): 0 | Soybean plant response rating (soybean; [3]): 0 | Plant response rating, Soybean (soybean; [4]): 0 | Plant response rating, Sugarbeets (sugar beet; [1]): 0 | Plant response rating, Sugarbeets (sugar beet; [5]): 0 | Sugarbeets plant response rating (sugar beet; [6]): 0 | Plant response rating, Sugarbeets (sugar beet; [7]): 0 | Sugarbeets plant response rating (sugar beet; [2]): 0 | Sugarbeets plant response rating (sugar beet; [3]): 0 | Plant response rating, Sugarbeets (sugar beet; [4]): 0 | Plant response rating, Velvetleaf (velvetleaf; [1]): 0 | Plant response rating, Velvetleaf (velvetleaf; [5]): 0 | Velvetleaf plant response rating (velvetleaf; [6]): 0 | Plant response rating, Velvetleaf (velvetleaf; [7]): 0 | Velvetleaf plant response rating (velvetleaf; [2]): 0 | Velvetleaf plant response rating (velvetleaf; [3]): 0 | Plant response rating, Velvetleaf (velvetleaf; [4]): 0 | Plant response rating, Wheat (wheat; [1]): 1 | Plant response rating, Wheat (wheat; [5]): 1 | Wheat plant response rating (wheat; [6]): 1 | Plant response rating, Wheat (wheat; [7]): 2 | Wheat plant response rating (wheat; [2]): 0 | Wheat plant response rating (wheat; [3]): 0 | Plant response rating, Wheat (wheat; [4]): 0 | Plant response rating, Wild oats (wild oat; [1]): 2 | Plant response rating, Wild oats (wild oat; [5]): 1 | Wild oats plant response rating (wild oat; [6]): 1 | Plant response rating, Wild oats (wild oat; [7]): 2 | Wild oats plant response rating (wild oat; [2]): 0 | Wild oats plant response rating (wild oat; [3]): 0 | Plant response rating, Wild oats (wild oat; [4]): 0 | Plant response rating, Nutsedge (purple nutsedge; [1]): 0 | Plant response rating, Nutsedge (purple nutsedge; [5]): 0 | Nutsedge plant response rating (purple nutsedge; [6]): 0 | Plant response rating, Nutsedge (purple nutsedge; [7]): 0 | Nutsedge plant response rating (purple nutsedge; [2]): 0 | Nutsedge plant response rating (purple nutsedge; [3]): 0 | Plant response rating, Nutsedge (purple nutsedge; [4]): 0 | Plant response rating, Rice (0 to 10 scale, 0 is no effect, 10 is complete control) (rice; [8]): 0 | Rice plant response rating (0 to 10 scale, 0 is no effect, 10 is complete control) (rice; [9]): 0 | Rice plant response rating (rice; [10]): 0 | Rice plant response rating (rice; [11]): 0 | Plant response rating, S. Flatsedge (0 to 10 scale, 0 is no effect, 10 is complete control) (smallflower flatsedge; [8]): 0 | S. Flatsedge plant response rating (0 to 10 scale, 0 is no effect, 10 is complete control) (smallflower flatsedge; [9]): 0 | S. Flatsedge plant response rating (smallflower flatsedge; [10]): 0 | S. Flatsedge plant response rating (smallflower flatsedge; [11]): 0 | Plant response rating, Ducksalad (0 to 10 scale, 0 is no effect, 10 is complete control) (duck salad; [8]): 0 | Ducksalad plant response rating (0 to 10 scale, 0 is no effect, 10 is complete control) (duck salad; [9]): 0 | Ducksalad plant response rating (duck salad; [10]): 0 | Ducksalad plant response rating (duck salad; [11]): 0 | Plant response rating, Barnyardgrass (0 to 10 scale, 0 is no effect, 10 is complete control) (bamyardgrass; [8]): 0 | Barnyardgrass plant response rating (0 to 10 scale, 0 is no effect, 10 is complete control) (bamyardgrass; [9]): 0 | Barnyardgrass plant response rating (bamyardgrass; [10]): 0 | Barnyardgrass plant response rating (bamyardgrass; [11]): 0
